Reference: US20160137610A1, “Compounds that Modulate EGFR Activity and Methods for Treating or Preventing Conditions Therewith” (Gatekeeper Pharmaceuticals, Inc., priority 2010, published 2016)

What was measured:
Type in all cases: cell-based
[1] = target: Ba/F3 cells EGFR L858R/T790M (Homo sapiens, UniProt P00533, T790M/L858R, cells depend on it); assay: Cell proliferation/growth MTS assay in EGFR mutant Ba/F3 cells; details: 72 hours, read-out: IC50 (nM) in Ba/F3 Cells, EGFR L858R/T790M
Text: (§1) The EGFR and iERBB2 mutant Ba/F3 cells and the NIH-3T3 cells have been previously characterized (Engelman, J. A. et al. Cancer Res 67, 11924-32 (2007); Yuza, Y. et al. Cancer Biol Ther 6 (2007)). The EGFR C797S and the ERBB2 T798I mutations are introduced using site directed mutagenesis using the Quick Change Site-Directed Mutagenesis kit (Stratagene; La Jolla, Calif.) according to the manufacturer's instructions (Mukohara, T. et al. J Natl Cancer Inst 97, 1185-94 (2005)). The oligonucleotide sequences are available upon request. All constructs are confirmed by DNA sequencing. The constructs are shuttled into the retroviral vector JP1540 using the BD Creator™ System (BD Biosciences). Ba/F3 of NIH-3T3 cells are infected with retrovirus according to standard protocols, as described previously (Engelman, J. A. et al. Proc Natl Acad Sci USA 102, 3788-93 (2005); Zhao, J. J. et al. Cancer Cell 3, 483-95 (2003)). Stable populations are obtained by selection in puromycin (2 μg/ml).
(§2) Growth and inhibition of growth is assessed by MTS assay. This assay, a colorimetric method for determining the number of viable cells, is based on the bioreduction of 3-(4,5-dimethylthiazol-2-yl)-5-(3-carboxymethoxyphenyl)-2-(4-sulfophenyl)-2H-tetrazolium (MTS) by cells to a formazan product that is soluble in cell culture medium, can be detected spectrophotometrically and was performed according to previously established methods (Mukohara, T. et al. J Natl Cancer Inst 97, 1185-94 (2005); Paez, J. G. et al. Science 304, 1497 500 (2004); Engelman, J. A. et al. J Clin Invest 116, 2695-2706 (2006). NSCLC or Ba/F3 cells are exposed to treatment for 72 hours and the number of cells used per experiment determined empirically and has been previously established. All experimental points are set up in six to twelve wells and all experiments are repeated at least three times. […] The curves are fitted using a non-linear regression model with a sigmoidal dose response.
(§3) Activity of various compounds of the invention was determined in vitro in EGFR mutant Ba/F3 cells according to the procedures set forth in Example 1.

[2] = target: Ba/F3 cells EGFR Del 19/T790M (Homo sapiens, UniProt P00533, DEL746-750/T790M, cells depend on it); assay: as above; details: 72 hours, read-out: IC50 (nM) in Ba/F3 Cells, EGFR Del 19/T790M
Text: as §1, §2, §3

[3] = target: Ba/F3 cells EGFR vIII (Homo sapiens, UniProt P00533, DELINS30-297G, cells depend on it); assay: as above; details: 72 hours, read-out: IC50 (nM) in Ba/F3 Cells, EGFR vIII
Text: as §1, §2, §3

[4] = tested on: A549 (KRAS G12); assay: Cell proliferation/growth MTS assay in NSCLC cell lines; details: Homo sapiens, 72 hours
[5] = tested on: PC9 GR (EGFR Del 19/T790M); assay: as above; details: 72 hours
Text: (§4) The EGFR mutant NSCLC cell lines HCC827 (del E746_A750), H3255 (L858R), HCC827 GR (del E746_A750/MET amplified), H1975 (L858R/T790M) and PC9 (del E746_A750) have been previously characterized (Amann., J. et al. Cancer Res 65, 226-35 (2005); Engelman, J. A. et al. Science 316, 1039-43 (2007); Ono, M. et al. Mol Cancer Ther 3, 465-72 (2004); Ogino, A. et al. Cancer Res 67, 7807-14 (2007)). The PC9 GR (del E746_A750/T790M) cells are generated and verified to contain del E746_A750 in cis with T790M. The ERBB2 amplified (Calu-3 and H1819) and mutant (H1781) are obtained from ATCC. […]
(§5) Growth and inhibition of growth is assessed by MTS assay. This assay, a colorimetric method for determining the number of viable cells, is based on the bioreduction of 3-(4,5-dimethylthiazol-2-yl)-5-(3-carboxymethoxyphenyl)-2-(4-sulfophenyl)-2H-tetrazolium (MTS) by cells to a formazan product that is soluble in cell culture medium, can be detected spectrophotometrically and was performed according to previously established methods (Mukohara, T. et al. J Natl Cancer Inst 97, 1185-94 (2005); Paez, J. G. et al. Science 304, 1497 500 (2004); Engelman, J. A. et al. J Clin Invest 116, 2695-2706 (2006). NSCLC or Ba/F3 cells are exposed to treatment for 72 hours and the number of cells used per experiment determined empirically and has been previously established. […]

[6] = tested on: PC9 (EGFR Del 19); assay: as above; details: 72 hours
Text: as §4, §5

Ba/F3 cells EGFR Del 19/T790M, sequence (P00533 with tags, fused parts or gaps DEL746-750/T790M): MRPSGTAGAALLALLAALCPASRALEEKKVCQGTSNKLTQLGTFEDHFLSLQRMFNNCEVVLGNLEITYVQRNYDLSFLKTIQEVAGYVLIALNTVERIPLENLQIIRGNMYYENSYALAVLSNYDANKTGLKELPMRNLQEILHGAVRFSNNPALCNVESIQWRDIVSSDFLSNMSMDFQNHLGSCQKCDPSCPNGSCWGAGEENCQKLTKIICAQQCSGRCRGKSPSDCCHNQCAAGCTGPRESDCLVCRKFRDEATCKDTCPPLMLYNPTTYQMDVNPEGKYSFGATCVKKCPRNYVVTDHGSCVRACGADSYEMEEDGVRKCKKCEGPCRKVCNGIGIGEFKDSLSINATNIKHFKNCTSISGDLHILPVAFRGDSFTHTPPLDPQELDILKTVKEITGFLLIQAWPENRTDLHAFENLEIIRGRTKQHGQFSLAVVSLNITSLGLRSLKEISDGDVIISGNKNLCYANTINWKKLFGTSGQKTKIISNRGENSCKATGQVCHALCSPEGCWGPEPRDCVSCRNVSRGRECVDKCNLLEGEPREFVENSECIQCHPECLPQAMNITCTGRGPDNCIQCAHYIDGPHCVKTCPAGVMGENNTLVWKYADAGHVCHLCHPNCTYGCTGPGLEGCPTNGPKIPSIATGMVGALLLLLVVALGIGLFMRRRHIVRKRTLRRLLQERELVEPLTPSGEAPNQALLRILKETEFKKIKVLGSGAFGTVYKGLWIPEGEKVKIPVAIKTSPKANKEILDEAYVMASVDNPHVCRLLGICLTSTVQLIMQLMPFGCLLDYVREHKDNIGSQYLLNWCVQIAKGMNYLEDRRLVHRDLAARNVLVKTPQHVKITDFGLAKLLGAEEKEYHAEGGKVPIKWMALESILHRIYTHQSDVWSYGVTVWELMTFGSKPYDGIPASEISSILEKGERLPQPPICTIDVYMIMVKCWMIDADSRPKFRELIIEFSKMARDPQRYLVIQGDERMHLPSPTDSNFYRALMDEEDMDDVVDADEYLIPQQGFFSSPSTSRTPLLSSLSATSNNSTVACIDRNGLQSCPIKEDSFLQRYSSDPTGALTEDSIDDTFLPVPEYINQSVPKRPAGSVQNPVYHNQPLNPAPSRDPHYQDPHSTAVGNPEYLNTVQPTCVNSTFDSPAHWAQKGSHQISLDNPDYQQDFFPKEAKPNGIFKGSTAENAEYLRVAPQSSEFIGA
Ba/F3 cells EGFR L858R/T790M, sequence (P00533 whole entry T790M/L858R): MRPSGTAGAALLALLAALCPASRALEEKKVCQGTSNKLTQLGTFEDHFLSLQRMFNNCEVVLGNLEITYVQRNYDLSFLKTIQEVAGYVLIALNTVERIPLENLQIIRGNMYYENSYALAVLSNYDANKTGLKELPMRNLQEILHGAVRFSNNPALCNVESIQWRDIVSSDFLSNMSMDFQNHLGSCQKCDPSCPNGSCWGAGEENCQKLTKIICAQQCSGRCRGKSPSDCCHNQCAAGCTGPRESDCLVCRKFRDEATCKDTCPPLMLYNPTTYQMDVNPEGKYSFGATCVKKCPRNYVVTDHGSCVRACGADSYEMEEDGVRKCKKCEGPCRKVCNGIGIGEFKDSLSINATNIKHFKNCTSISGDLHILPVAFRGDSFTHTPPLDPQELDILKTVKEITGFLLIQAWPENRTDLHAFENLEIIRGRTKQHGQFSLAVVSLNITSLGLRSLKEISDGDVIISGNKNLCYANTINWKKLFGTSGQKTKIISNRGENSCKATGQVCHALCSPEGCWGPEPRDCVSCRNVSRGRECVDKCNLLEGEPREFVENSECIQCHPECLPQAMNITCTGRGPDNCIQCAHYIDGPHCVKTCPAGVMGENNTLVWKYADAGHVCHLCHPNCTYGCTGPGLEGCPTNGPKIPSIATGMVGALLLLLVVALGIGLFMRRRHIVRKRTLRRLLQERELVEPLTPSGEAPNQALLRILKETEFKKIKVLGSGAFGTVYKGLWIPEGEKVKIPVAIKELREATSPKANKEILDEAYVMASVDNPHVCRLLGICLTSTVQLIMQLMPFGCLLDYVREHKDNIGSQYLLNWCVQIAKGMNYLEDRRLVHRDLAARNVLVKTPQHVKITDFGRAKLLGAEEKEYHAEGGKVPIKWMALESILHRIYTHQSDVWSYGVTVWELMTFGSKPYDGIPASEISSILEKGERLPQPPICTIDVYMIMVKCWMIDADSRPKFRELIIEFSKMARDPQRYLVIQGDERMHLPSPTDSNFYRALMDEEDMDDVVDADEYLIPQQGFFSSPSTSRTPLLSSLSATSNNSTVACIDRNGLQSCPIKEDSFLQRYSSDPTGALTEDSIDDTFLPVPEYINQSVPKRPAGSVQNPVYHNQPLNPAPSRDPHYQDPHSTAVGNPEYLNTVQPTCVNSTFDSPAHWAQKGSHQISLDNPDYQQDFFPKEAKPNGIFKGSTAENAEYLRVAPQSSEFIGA
Ba/F3 cells EGFR vIII, sequence (P00533 with tags, fused parts or gaps DELINS30-297G): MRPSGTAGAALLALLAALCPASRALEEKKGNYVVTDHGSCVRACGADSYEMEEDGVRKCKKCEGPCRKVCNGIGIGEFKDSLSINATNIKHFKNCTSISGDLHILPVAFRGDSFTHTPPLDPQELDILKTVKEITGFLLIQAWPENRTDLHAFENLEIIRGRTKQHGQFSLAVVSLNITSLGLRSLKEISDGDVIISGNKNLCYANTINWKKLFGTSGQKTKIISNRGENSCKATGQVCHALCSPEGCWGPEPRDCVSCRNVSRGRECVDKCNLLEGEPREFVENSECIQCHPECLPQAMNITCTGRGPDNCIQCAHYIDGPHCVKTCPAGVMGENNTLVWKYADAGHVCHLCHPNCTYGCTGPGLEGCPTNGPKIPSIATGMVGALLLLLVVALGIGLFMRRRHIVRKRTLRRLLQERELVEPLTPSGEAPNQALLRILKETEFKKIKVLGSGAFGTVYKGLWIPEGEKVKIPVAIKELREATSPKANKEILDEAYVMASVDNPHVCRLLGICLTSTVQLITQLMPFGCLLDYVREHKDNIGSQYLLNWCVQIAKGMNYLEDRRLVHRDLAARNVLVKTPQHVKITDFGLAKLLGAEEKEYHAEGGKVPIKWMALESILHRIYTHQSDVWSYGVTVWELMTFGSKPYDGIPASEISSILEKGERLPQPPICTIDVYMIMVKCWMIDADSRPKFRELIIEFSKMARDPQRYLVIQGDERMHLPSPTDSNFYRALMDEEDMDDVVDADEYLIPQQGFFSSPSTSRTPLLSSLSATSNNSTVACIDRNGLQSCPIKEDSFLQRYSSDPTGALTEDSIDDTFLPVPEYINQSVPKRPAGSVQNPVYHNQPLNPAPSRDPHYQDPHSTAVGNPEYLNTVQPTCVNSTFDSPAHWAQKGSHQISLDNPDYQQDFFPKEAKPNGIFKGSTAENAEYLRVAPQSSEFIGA

| SMILES | GI50 [1] | GI50 [2] | GI50 [3] | IC50 [4] | IC50 [5] | IC50 [6] |
| --- | --- | --- | --- | --- | --- | --- |
| C=CC(=O)Nc1cccc(CNc2ncc(Cl)c(Nc3ccccc3S(=O)(=O)C(C)C)n2)c1 [Compound XIII-3, N-(3-(((5-chloro-4-((2-(isopropylsulfonyl)phenyl)amino)pyrimidin-2-yl)amino)methyl)phenyl)acrylamide] | 721 nM | 670 nM |  |  |  |  |
| C=CC(=O)Nc1cccc(Nc2ncc(Cl)c(Nc3ccccc3C(=O)NC)n2)c1 [Compound XIII-1, 2-((2-((3-acrylamidophenyl)amino)-5-chloropyrimidin-4-yl)amino)-N-methylbenzamide] | 6 nM | 3 nM | 3 nM | 814 nM |  |  |
| C=CC(=O)Nc1ccc(OC)c(Nc2ncc(Cl)c(Nc3ccccc3C(=O)NC)n2)c1 [Compound XIII-2, 2-((2-((5-acrylamido-2-methoxyphenyl)amino)-5-chloropyrimidin-4-yl)amino)-N-methylbenzamide] | 65 nM | 56 nM | 570 nM | > 3300 nM | 104 nM | 118 nM |

The next lines start with the values.

| GI50 [1] | GI50 [2] | GI50 [3] | IC50 [4] | IC50 [5] | IC50 [6] | SMILES |
| --- | --- | --- | --- | --- | --- | --- |
| 9 nM | 11 nM |  |  |  |  | C=CC(=O)Nc1cccc(Nc2ncc(Cl)c(Nc3ccccc3S(=O)(=O)NC)n2)c1 [Compound XIII-5, N-(3-((5-chloro-4-((2-(N-methylsulfamoyl)phenyl)amino)pyrimidin-2-yl)amino)phenyl)acrylamide] |
| 17 nM | 7 nM |  |  |  |  | C=CC(=O)Nc1cccc(Nc2ncc(Cl)c(Nc3ccccc3S(=O)(=O)C(C)C)n2)c1 [Compound XIII-4, N-(3-((5-chloro-4-((2-(isopropylsulfonyl)phenyl)amino)pyrimidin-2-yl)amino)phenyl)acrylamide] |
